Three compounds from US20240141061A1, “NOVEL ANTIBODY AGAINST CD55 AND USE THEREOF” (SG MEDICAL INC, priority 2021, published 2024) can be followed below.

What all share (format): cell-based
The subject of test [1] is Ramos cells. Briefly: CDC / apoptosis by FACS in Ramos cells with complement human serum. The conditions noted are these: rituximab alone, method of Example 10-1. (In general: Flow cytometry measures light scatter and fluorescence of single cells or particles in a stream.)
The test system of test [2] is Burkitt lymphoma BJAB cells. Briefly: CDC / apoptosis by FACS (annexin V/7-AAD) in BJAB cells with complement human serum. The conditions noted are these: 20 μg/mL rituximab alone, 50% complement human serum, 1 hour. From the text:
BJAB cells have complement resistance and this is due to the expression of CD55 (Golay, et al., Blood, 95 (12):3900-8, 2000). For this reason, they show low response to rituximab the main therapeutic mechanism of which is CDC (complement-dependent cytotoxicity). In order to confirm the possibility of improving the therapeutic effect of rituximab for Burkitt lymphoma, which is known as malignant B cell lymphoma, the apoptotic ability of co-administration with EP-10H in Burkitt lymphoma BJAB cells was investigated. For investigation of the effect of co-administration, 5×10^5 BJAB cells were cultured for 1 hour under the condition of 37° C. and 5% CO2 after treating with 100 μL of RPMI supplemented with 50% complement human serum (Sigma, USA), containing 50 μg/mL of 4-1H or EP-10H and 20 μg/mL of rituximab. Then, CDC was observed by identifying apoptotic cells with Attune N×T (ThermoFisher Scientific, USA), which is a FACS analysis equipment, using an FITC annexin V apoptosis detection kit with 7-AAD (BioLegend, USA) (FIG. 4). […] It was confirmed that this effect was more significant for EP-10H having higher affinity for CD55.
The apoptotic ability of the CD20×CD55 bispecific antibody was investigated by the method of Example 10-1. […]

For test [3], the system named is Ramos-RR cells. Briefly: CDC / apoptosis by FACS in rituximab-resistant Ramos-RR cells with complement human serum. The conditions noted are these: rituximab alone, method of Example 10-1.
For test [4], the system named is K562 cells. Nature of the test: Apoptosis by FACS in K562 cells. The conditions noted are these: 2 μM imatinib alone, 24 hours. On the procedure:
(§1) Immediately thereafter, the cells were treated with 2 μM imatinib or with 2 μM imatinib and 10 μg/mL 4-1H or EP-10H diluted with 500 μL of RPMI, and then cultured under the condition of 37° C. and 5% CO2 for 24 hours. Then, apoptotic cells were analyzed with the FACS analysis equipment Attune N×T using 7-AAD and an FITC annexin V apoptosis detection kit (FIG. 6b).

Test [5] deals with K562-IR cells. Briefly: Apoptosis by FACS in imatinib-resistant K562-IR cells. The conditions noted are these: 2 μM imatinib alone, 24 hours. On the procedure: as §1
Test [6] relates to PC9-GR cells. Nature of the test: Apoptosis by FACS in gefitinib-resistant PC9-GR cells. As to conditions: 5 μg/mL gefitinib alone, 24 hours. On the procedure: (§2) 24 hours later, after treating with 5 μg/mL gefitinib or 5 μg/mL gefitinib and 5 μg/mL 4-1H or EP-10H diluted with 500 μL of RPMI, the cells were cultured again for 24 hours under the condition of 37° C. and 5% CO2. Then, apoptotic cells were analyzed with the FACS analysis equipment Attune N×T using 7-AAD and an FITC annexin V apoptosis detection kit (FIG. 7b).

Test [7] relates to PC9 NSCLC cells. Nature of the test: Apoptosis by FACS in PC9 NSCLC cells. The conditions noted are these: 5 μg/mL gefitinib alone, 24 hours. On the procedure: as §2

Regarding rituximab [reference compound], the values for the induction of apoptosis result in test [1] and in test [3] were “induced apoptosis” and “the induction of apoptosis in the Ramos-RR cells was lower than in the Ramos cells”, respectively. In test [2], the “response to rituximab (CDC, apoptotic cells)” value is “low response”.

As for `Cc1ccc(NC(=O)c2ccc(CN3CCN(C)CC3)cc2)cc1Nc1nccc(-c2cccnc2)n1` [Imatinib, imatinib, reference compound], the values for the induction of apoptosis result in test [4] and in test [5] were “induced apoptosis” and “did not show the effect”, respectively.

Consider `COc1cc2ncnc(Nc3ccc(F)c(Cl)c3)c2cc1OCCCN1CCOCC1` [Gefitinib, gefitinib, reference compound], for which the induction of apoptosis entry in test [6] was “did not show the effect”; in test [7], “induced apoptosis”.
